In test [1] the target is T1, Human Indoleamine 2,3-dioxygenase (IDO) (Homo sapiens, UniProt P14902).
T1 construct: His tag (N); made in house; host or cells: E. coli
The experiment in a line: Human IDO enzymatic assay (kynurenine level). The test is classed as biochemical. The following applies: 6 nM IDO, 10 μM L-Trp; geometric mean; read-out: IDO1 GMean: IC50 (μM) (Biochemical Assay). The method in brief:
(§1)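 Kynurenine formed is measured after TCA quench and 50 °C hydrolysis, with % inhibition against full-reaction and no-enzyme controls (5% DMSO). IDO: 6 nM enzyme, 10 μM L-Trp, 5 μM methylene blue, 20 min; TDO: 1 nM, 350 μM L-Trp, 0.4 μM methylene blue, 70 min; both pH 6.5, room temp, E. coli-expressed His-tagged.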

For test [2], the target named is T2, Human Tryptophan 2,3-dioxygenase (TDO) (Homo sapiens, UniProt P48775).
T2 construct: His tag (N); made in house; host or cells: E. coli
The experiment in a line: Human TDO enzymatic assay (kynurenine level). The test is classed as biochemical. The following applies: 1 nM TDO, 350 μM L-Trp; geometric mean; read-out: TDO GMean: IC50 (μM) (Biochemical Assay). In outline: as §1

Test [3] has as its target T3, human IDO (IDO1-expressing HEK293 cells) (Homo sapiens, UniProt P14902).
T3 construct: expressed in transfected cells
The experiment in a line: Cell based kynurenine assay, IDO1-expressing HEK293 cell clones. Conditions: IDO1-expressing HEK293 cells, 24 hours incubation; geometric mean; read-out: HEK293 IDO1 Kynurenine GMean IC50 (μM) (Cellular Assay). The method in brief: (§2)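 Kynurenine in culture supernatant read after 24 h compound exposure of HEK293 cells stably expressing human IDO1 or TDO. IC50 from nonlinear regression of % inhibition relative to 0.2% DMSO cell (high) and media-only (low) controls.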

The target of test [4] is T4, human TDO (TDO-expressing HEK293 cells) (Homo sapiens, UniProt P48775).
T4 construct: expressed in transfected cells
The experiment in a line: Cell based kynurenine assay, TDO-expressing HEK293 cell clones. Conditions: TDO-expressing HEK293 cells, 24 hours incubation; geometric mean; read-out: HEK293 TDO Kynurenine GMean IC50 (μM) (Cellular Assay). The method in brief:
as §2

T1 sequence (P14902 whole entry): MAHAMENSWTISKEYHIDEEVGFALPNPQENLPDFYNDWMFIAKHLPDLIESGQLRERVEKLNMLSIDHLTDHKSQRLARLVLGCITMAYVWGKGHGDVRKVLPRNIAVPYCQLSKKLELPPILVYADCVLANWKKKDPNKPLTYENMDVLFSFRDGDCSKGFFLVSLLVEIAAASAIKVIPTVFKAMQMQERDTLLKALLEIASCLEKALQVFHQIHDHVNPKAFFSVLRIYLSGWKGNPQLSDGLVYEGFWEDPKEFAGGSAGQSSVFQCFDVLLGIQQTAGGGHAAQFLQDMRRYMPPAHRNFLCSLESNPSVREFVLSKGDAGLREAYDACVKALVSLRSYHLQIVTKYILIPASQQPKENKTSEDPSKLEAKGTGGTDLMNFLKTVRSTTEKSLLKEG
T3 sequence (P14902 whole entry): as above
T2 sequence (P48775 whole entry): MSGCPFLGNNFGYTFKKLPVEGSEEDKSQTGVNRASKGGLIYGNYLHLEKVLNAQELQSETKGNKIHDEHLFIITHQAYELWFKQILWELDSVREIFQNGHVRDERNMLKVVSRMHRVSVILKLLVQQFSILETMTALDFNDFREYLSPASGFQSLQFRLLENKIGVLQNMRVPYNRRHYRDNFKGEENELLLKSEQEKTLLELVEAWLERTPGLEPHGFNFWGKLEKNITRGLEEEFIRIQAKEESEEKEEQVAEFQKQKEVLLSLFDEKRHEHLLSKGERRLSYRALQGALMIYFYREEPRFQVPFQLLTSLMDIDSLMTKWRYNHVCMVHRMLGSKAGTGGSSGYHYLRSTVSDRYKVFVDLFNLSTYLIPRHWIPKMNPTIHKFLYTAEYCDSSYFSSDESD
T4 sequence (P48775 whole entry): as above

Usually IC50 stands for the point on the concentration scale where inhibition reaches its midpoint. Consider `NC(=O)N1CCC(C(F)(F)C(O)c2cc(Cl)cc3cn[nH]c23)CC1` (stereo not shown) [Compound P-0144, 4-(2-(5-chloro-1H-indazol-7-yl)-1,1-difluoro-2-hydroxyethyl)piperidine-1-carboxamide], for which the IC50 in test [1], in test [2], in test [3] and in test [4] was 0.0001 to 10 µM each time.

On to `CC1(C(O)c2cc(Cl)cc3[nH]ncc23)CCCCC1` (stereo not shown) [Compound P-0145, (6-chloro-1H-indazol-4-yl)(1-methylcyclohexyl)methanol], for which the IC50 in test [1] was 0.0001 to 10 µM; in test [2], 0.0001 to 10 µM; in test [3], above 10 µM; in test [4] it was 0.0001 to 10 µM.

For the molecule `OC(c1cc(Cl)cc2[nH]ncc12)C12CCC(CC1)CC2` (stereo not shown) [Compound P-0146, bicyclo[2.2.2]octan-1-yl(6-chloro-1H-indazol-4-yl)methanol], the IC50 was 0.0001 to 10 µM in test [1], 0.0001 to 10 µM in test [2], above 10 µM in test [3] and 0.0001 to 10 µM in test [4].

Take `CCC(=O)N1CCC(C(F)(F)C(O)c2cc(Cl)cc3cn[nH]c23)CC1` (stereo not drawn) [Compound P-0147, 1-(4-(2-(5-chloro-1H-indazol-7-yl)-1,1-difluoro-2-hydroxyethyl)piperidin-1-yl)propan-l-one]: the IC50 in test [1], in test [2], in test [3] and in test [4] was 0.0001 to 10 µM each time.

Turning to `CC(C)CC(=O)N1CCC(C(F)(F)C(O)c2cc(Cl)cc3cn[nH]c23)CC1` (stereo not drawn) [Compound P-0148, 1-(4-(2-(5-chloro-1H-indazol-7-yl)-1,1-difluoro-2-hydroxyethyl)piperidin-l-yl)-3-methylbutan-1-one], the IC50 in test [1], in test [2], in test [3] and in test [4] was 0.0001 to 10 µM each time.

In the case of `O=C(CC1CC1)N1CCC(C(F)(F)C(O)c2cc(Cl)cc3cn[nH]c23)CC1` (stereo not drawn) [Compound P-0149, 1-(4-(2-(5-chloro-1H-indazol-7-yl)-1,1-difluoro-2-hydroxyethyl)piperidin-l-yl)-2-cyclopropylethan-1-one], the IC50 in test [1], in test [2], in test [3] and in test [4] was 0.0001 to 10 µM throughout.

In the case of `O=C(Nc1ccccc1)N1CCC(C(F)(F)C(O)c2cc(Cl)cc3cn[nH]c23)CC1` (stereo not shown) [Compound P-0150, 4-(2-(5-chloro-1H-indazol-7-yl)-1,1-difluoro-2-hydroxyethyl)-N-phenylpiperidine-1-carboxamide], the IC50 in test [1], in test [2], in test [3] and in test [4] was 0.0001 to 10 µM in each case.

Regarding `O=C(Nc1ccc(F)cc1)N1CCC(C(F)(F)C(O)c2cc(Cl)cc3cn[nH]c23)CC1` (stereo not shown) [Compound P-0151, 4-(2-(5-chloro-1H-indazol-7-yl)-1,1-difluoro-2-hydroxyethyl)-N-(4-fluorophenyl)piperidine-1-carboxamide], the IC50 in test [1], in test [2], in test [3] and in test [4] was 0.0001 to 10 µM in each case.

In the case of `O=C(Nc1cccc(F)c1)N1CCC(C(F)(F)C(O)c2cc(Cl)cc3cn[nH]c23)CC1` (stereo not shown) [Compound P-0152, 4-(2-(5-chloro-1H-indazol-7-yl)-1,1-difluoro-2-hydroxyethyl)-N-(3-fluorophenyl)piperidine-1-carboxamide], the IC50 in test [1], in test [2], in test [3] and in test [4] was 0.0001 to 10 µM each time.

Turning to `O=C(Nc1ccc(C(F)(F)F)cc1)N1CCC(C(F)(F)C(O)c2cc(Cl)cc3cn[nH]c23)CC1` (stereo not shown) [Compound P-0153, 4-(2-(5-chloro-1H-indazol-7-yl)-1,1-difluoro-2-hydroxyethyl)-N-(4-(trifluoromethyl)phenyl)piperidine-1-carboxamide], the IC50 in test [1], in test [2], in test [3] and in test [4] was 0.0001 to 10 µM in each case.

Turning to `O=C(Nc1cccc(C(F)(F)F)c1)N1CCC(C(F)(F)C(O)c2cc(Cl)cc3cn[nH]c23)CC1` (stereo not shown) [Compound P-0154, 4-(2-(5-chloro-1H-indazol-7-yl)-1,1-difluoro-2-hydroxyethyl)-N-(3-(trifluoromethyl)phenyl)piperidine-1-carboxamide], the IC50 in test [1], in test [2], in test [3] and in test [4] was 0.0001 to 10 µM each time.

Regarding `COC(=O)N1CCC(C2(C(O)c3cc(Cl)cc4cn[nH]c34)CC2)CC1` (stereo not shown) [Compound P-0155, methyl 4-(1-((5-chloro-1H-indazol-7-yl)(hydroxy)methyl)cyclopropyl)piperidine-1-carboxylate], the IC50 in test [1], in test [2], in test [3] and in test [4] was 0.0001 to 10 µM in each case.

In the case of `NC(=O)N1CCC(C2(C(O)c3cc(Cl)cc4cn[nH]c34)CC2)CC1` (stereo not shown) [Compound P-0156, 4-(1-((5-chloro-1H-indazol-7-yl)(hydroxy)methyl)cyclopropyl)piperidine-1-carboxamide], the IC50 in test [1], in test [2], in test [3] and in test [4] was 0.0001 to 10 µM in each case.

On to `O=C(Nc1ccc(F)cc1)N1CCC(C2(C(O)c3cc(Cl)cc4cn[nH]c34)CC2)CC1` (stereo not shown) [Compound P-0157, 4-(1-((5-chloro-1H-indazol-7-yl)(hydroxy)methyl)cyclopropyl)-N-(4-fluorophenyl)piperidine-1-carboxamide], for which the IC50 in test [1], in test [2], in test [3] and in test [4] was 0.0001 to 10 µM in each case.

Regarding `CS(=O)(=O)N1CCC(C2(C(O)c3cc(Cl)cc4cn[nH]c34)CC2)CC1` (stereo not shown) [Compound P-0158, (5-chloro-1H-indazol-7-yl)(1-(1-(methylsulfonyl)piperidin-4-yl)cyclopropyl)methanol], the IC50 in test [1], in test [2], in test [3] and in test [4] was 0.0001 to 10 µM each time.

As to `CC(=O)N1CCC(C2(C(O)c3c(F)c(Cl)cc4cn[nH]c34)CC2)CC1` (stereo not drawn) [Compound P-0159, 1-(4-(1-((5-chloro-6-fluoro-1H-indazol-7-yl)(hydroxy)methyl)cyclopropyl)piperidin-1-yl)ethan-l-one], the IC50 in test [1], in test [2], in test [3] and in test [4] was 0.0001 to 10 µM in each case.

Turning to `COC(=O)N1CCC(C2(C(O)c3c(F)c(Cl)cc4cn[nH]c34)CC2)CC1` (stereo not shown) [Compound P-0160, methyl 4-(1-((5-chloro-6-fluoro-1H-indazol-7-yl)(hydroxy)methyl)cyclopropyl)piperidine-1-carboxylate], the IC50 in test [1], in test [2], in test [3] and in test [4] was 0.0001 to 10 µM in each case.

In the case of `NC(=O)N1CCC(C2(C(O)c3c(F)c(Cl)cc4cn[nH]c34)CC2)CC1` (stereo not shown) [Compound P-0161, 4-(1-((5-chloro-6-fluoro-1H-indazol-7-yl)(hydroxy)methyl)cyclopropyl)piperidine-1-carboxamide], the IC50 in test [1], in test [2], in test [3] and in test [4] was 0.0001 to 10 µM throughout.

Take `CNC(=O)N1CCC(C2(C(O)c3c(F)c(Cl)cc4cn[nH]c34)CC2)CC1` (stereo not shown) [Compound P-0162, 4-(1-((5-chloro-6-fluoro-1H-indazol-7-yl)(hydroxy)methyl)cyclopropyl)-N-methylpiperidine-1-carboxamide]: the IC50 in test [1], in test [2], in test [3] and in test [4] was 0.0001 to 10 µM each time.

Regarding `O=C(Nc1ccc(F)cc1)N1CCC(C2(C(O)c3c(F)c(Cl)cc4cn[nH]c34)CC2)CC1` (stereo not shown) [Compound P-0164, 4-(1-((5-chloro-6-fluoro-1H-indazol-7-yl)(hydroxy)methyl)cyclopropyl)-N-(4-fluorophenyl)piperidine-1-carboxamide], the IC50 in test [1], in test [2], in test [3] and in test [4] was 0.0001 to 10 µM each time.

With `CS(=O)(=O)N1CCC(C2(C(O)c3c(F)c(Cl)cc4cn[nH]c34)CC2)CC1` (stereo not shown) [Compound P-0165, (5-chloro-6-fluoro-1H-indazol-7-yl)(1-(1-(methylsulfonyl)piperidin-4-yl)cyclopropyl)methanol], the IC50 in test [1], in test [2], in test [3] and in test [4] was 0.0001 to 10 µM each time.

For the molecule `Nc1nc(C(=O)N2CCC(C3(C(O)c4cc(Cl)cc5cn[nH]c45)CC3)CC2)cs1` (stereo not shown) [Compound P-0166, (2-aminothiazol-4-yl)(4-(1-((5-chloro-1H-indazol-7-yl)(hydroxy)methyl)cyclopropyl)piperidin-1-yl)methanone], the IC50 in test [1], in test [2], in test [3] and in test [4] was 0.0001 to 10 µM throughout.
